One may read the EC50 as the concentration giving half of the maximal effect. The CC50 is the concentration at which the toxic effect on the cells reaches its halfway point.

Where two headings read alike, the source gives them in different places.

This is an account of results in publication PMC4976923, “Potent Allosteric Dengue Virus NS5 Polymerase Inhibitors: Mechanism of Action and Resistance Profiling” (PLoS Pathogens, 2016).

Data set [1] deals with DENV2-NGC Ren-LUC Replicon in HuH-7. As to the kind of experiment: Stable HuH-7 DENV2-NGC renilla luciferase replicon assay. To be noted: read-out: HuH-7 DENV Replicon, DENV2, EC50. Type of data set: cell-based. (In general: In antiviral work, replicon cells carry a viral genome segment that copies itself.)
Data set [2] concerns DENV2-NGC Ren-LUC Replicon in A549. Nature of the data set: Stable A549 DENV2-NGC renilla luciferase replicon assay. Type of data set: cell-based. To be noted: Dengue virus, 48 hr. How it is done: (§1) A549, BHK-21 and Huh7 cells bearing stable DENV2 sub-genomic replicon or transiently electroporated DENV2-NGC replicon or infectious virus cDNAs were seeded into 384-well microplate (3,000 cells per well). After over-night incubation at 37°C with 5% CO2, the cells were treated with 2-fold serially diluted compounds, starting from 20 or 50 μM. At 48 hr of post-incubation, renilla luciferase activities were measured with the ViviRen live-cell substrate (Promega, USA) according to the manufacturer’s protocol. CellTiter-Glo reagent (Promega, USA) was then added to determine cytotoxic effects of compounds. For the HCV replicon assay, Huh-7.5 cells harboring the HCV replicon were seeded into a 96-well microplate (20,000 cells per well). At 48 hr after compound treatment, cells were assayed for firefly luciferase activity by using a Bright-Glo luciferase assay (Promega, USA). NITD-008, a nucleoside inhibitor of DENV and HCV was added as a control.
(§2) 1 containing 2 % FBS, 1mM L-glutamine and 1 % penicillin-streptom ycin and incubated over-
At 24 h post-seeding, cells were inf ected with DENV1-4 at
3 multiplicity of infection [MOI] of 0.3-1 (DENV1, strain MY97- 10245, MOI = 0.5; DENV2,
5 MY01-22713; MOI = 0.5) and treated immediatel y with 10- point, 3-fold serially diluted
6 compounds (at final 0.5% DMSO concent ration; 4). At 48 h post-infection , cells wer e fix ed
(§3) 8 DENV envelope protein ) and DRAQ5 (for nucl ear DNA) . Quantifications of DENV
9 envelope protein were determined using the Opera high content imaging s ystem and anal ysis
10 software (Perkin Elmer, USA). Calculation of EC50 values were perfo rmed using Helios
11 software p ackage (Nov ar tis, Basel).
13 Compound testing in DENV2 and HCV sub -genomic replicon assays. A549, BHK -21 and
14 Huh7 DENV2 sub- geno mic replicon cells were seed ed at a d ensit y o f 3,000 cells per w ell
15 in a 384-well microplate. After incubation at 37 °C with 5 % CO2 overnight, the cells were […]
(§4) 17 µM concentrations. At 48 hr of post-incubation, r enilla luciferas e activities were measured […]

The nature of data set [3]: in vitro. Type of data set: cell-based. The procedure: as §1
Another data set relates to DENV2 replicon cells. As to the kind of experiment: DENV2 replicon cells from HuH-7, BHK-21 and A549 backgrounds, range. Type of data set: cell-based. The settings on record: Dengue virus, range across cell backgrounds.
In a further data set the target is T1, DENV2 FL NS5 WT (Dengue virus type 2, UniProt P14340).
T1 construct: compared against activities of WT DENV2 or DENV4 FL NS5 proteins; made in house
Type of data set: binding. The settings on record: 50 µM compound; for Protein melting temperature, Tm, DENV2 FL NS5 WT: DMSO 35.5.

The next data set has as its target T2, DENV2 FL NS5 L511V/E802D (Dengue virus type 2, UniProt P14340, E3293D/L3003V).
T2 construct: Recombinant DENV2 (A, C) and DENV4 (B, D) FL NS5 proteins bearing single or double amino acid changes; made in house
Type of data set: binding. To be noted: 50 µM compound; for Protein melting temperature, Tm, DENV2 FL NS5 L511V/E802D: DMSO 35.

Data set [4] concerns DENV2-NGC Ren-LUC Replicon in BHK21. As to the kind of experiment: Stable BHK21 DENV2-NGC renilla luciferase replicon assay. Type of data set: cell-based. The settings on record: Dengue virus, DENV2, BHK-21; 48 hr.
Data set [5] concerns DENV2-NGC EGFP Replicon in BHK21. Nature of the data set: Stable BHK21 DENV2-NGC EGFP replicon assay. Type of data set: cell-based. To be noted: Dengue virus, DENV2, BHK-21; 48 hr.
For a further data set, the system named is HCV replicon. As to the kind of experiment: HCV replicon firefly luciferase assay. Type of data set: cell-based, hepatitis C virus (HCV) genotype 1b. The settings on record: Hepatitis C virus; HuH-7; 48 hr; tested up to 25 μM. How it is done:
as §1, §2
At 24 h post-seeding, cells were inf ected with DENV1-4 at […]
as §3
9 envelope protein were determined using the Opera high content imaging s ystem and anal ysis […]
as §4

The nature of data set [6]: in vitro. Type of data set: cell-based. The settings on record: human; 4–5 days; read-out: CC50, HepG2.
Another data set relates to DENV2-NGC replicon L512V. Type of data set: cell-based. The settings on record: electroporated BHK-21; 2 days.
For data set [7], the system named is DENV2-NGC replicon L512V/E802D. Type of data set: cell-based. To be noted: electroporated BHK-21; 2 days.
The test system of a further data set is DENV2-NGC virus E802D. Type of data set: cell-based. The settings on record: A549, MOI = 0.2; 48 hr; plaque assay.
Data set [8] concerns Control DENV2-NGC EGFP-replicon cells passaged in DMSO. Nature of the data set: Control DENV2-NGC EGFP-replicon cells passaged in DMSO. To be noted: Dengue virus, DENV2, 48 h; 2 days. Type of data set: cell-based.
Data set [9] concerns clinical DENV2 isolate MY97-10340. To be noted: A549, 48 hr, read-out: DENV2 HCI, EC50 (converted); cited from earlier work.
The test system of another data set is DENV3 strain MY05-34640. To be noted: A549; 48 hr; read-out: DENV3 HCI, EC50 (converted); cited from earlier work.
For data set [10], the system named is DENV2-NGC replicon Wild Type. As to the kind of experiment: Transient WT DENV2-NGC replicon in BHK-21 cells. To be noted: Dengue virus, DENV2, BHK-21, 48 h, read-out: EC50, DENV2-NGC Replicon, Wild Type.
Description: 4 Compound testing in cells transiently expressing DENV and WNV replicon. R enilla
5 luciferas e sub-genomic replicon of DENV2 (strai n New Guinea C) or WN V (New York
6 strain 3356) cloned into the pACYC plasmid, was in vitro transcribed using a T7 mMessage
7 mMachine kit (Ambion, Austin, TX) after linearization with ClaI, as descri bed previousl y
8 [5]. A549 cells were electroporated with 10 μg of replicon RNA using a GenePulser Xcell
9 system (Bio-Rad, H ercul es, CA) with 3 pulses, at 450 V, 25 µF, at 5- 10 sec intervals.
10 Transfected cells wer e seeded into a 96-w ell plate at 1.5 × 10^4 cells per well, followed b y
11 treatment with the compound or the dimethyl sulfoxide (DMSO) control and incubation at
12 37°C in 5 % CO2. At various time points post-transfection, cells were w ash ed once with
13 phosphate-buffered saline (PBS) and l ysed in 20 μl 1× l ysis buffer (Promega, USA) and
14 assa yed fo r luciferase si gnals with a Clarit y luminescence microplate reader (BioT ek, USA)
15 using the renilla luciferase assa y s ystem (Promega, USA). CellTiter -Glo reagent was added to
16 the l ysates to determine t he c ytotoxicit y effects of compounds.Duplicate w ells were seeded
Where [11] appears, read: Dengue virus, DENV2, Huh-7, 48 h.
[12] abbreviates: human, HuH-7 (DENV2 replicon cells), 48 hr, ATP levels.
Where [13] appears, read: human, 2 days, read-out: CC50, A549.
Setting [14] is: hamster, 2 days, read-out: CC50, BHK-21.

Turning to `COc1cccc(S(=O)(=O)NC(=O)c2cc(-c3ccc(C#CCO)s3)c(OC)cc2C)c1` [Compound 26i], the EC50 in data set [1] (setting [11]) is 12.1 µM; in data set [2], 15.4 µM; in the data set on DENV2 replicon cells it was 12 to 15 µM. Moreover, the CC50 in “in vitro [3]” (setting [12]) and in the data set “in vitro [3]” (setting [13]) was above 50 µM throughout.
On to `COc1cccc(S(=O)(=O)NC(=O)c2cc(-c3ccc(C#CCO)s3)c(OC)cc2OC)c1` [Compound 27], for which the “Tm change compared to DMSO control, DENV2 FL NS5 WT” value on DENV2 FL NS5 WT was determined as 1.5 °C. For the same compound, the “Protein melting temperature, Tm, DENV2 FL NS5 WT” value at DENV2 FL NS5 WT was 37 °C. For the same compound, the “Tm change compared to DMSO control, DENV2 FL NS5 L511V/E802D” value at DENV2 FL NS5 L511V/E802D was determined as 0 °C. In addition, the “Protein melting temperature, Tm, DENV2 FL NS5 L511V/E802D” value at DENV2 FL NS5 L511V/E802D came out at 35 °C. Besides, the EC50 was 3.9 ± 0.62 µM in data set [1] (setting [11]); 3 µM in data set [4]; 2.3 µM in [2]; 3.5 µM in [5]; above 25 µM with HCV replicon; 25.9 µM in the data set on DENV2-NGC replicon L512V. In addition, the EC50 was 28.4 µM in data set [7]; 1.42 µM in the data set with DENV2-NGC virus E802D; 2.46 µM in data set [8]; 1 to 5 µM in the data set with DENV2 replicon cells; 2.3 µM in data set [9]; 1.8 ± 0.5 µM in the data set with DENV3 strain MY05-34640. In addition, in data set [10], the EC50 turned out to be 7.83 µM. Besides, the CC50 in “in vitro [3]” (setting [14]) was above 50 µM; in “in vitro [3]” (setting [12]), above 100 µM; in the data set “in vitro [3]” (setting [13]), above 50 µM; in “in vitro [6]” it was above 50 µM.
For `COc1cc(OC)c(-c2ccc(C#CCO)s2)cc1C(=O)NS(=O)(=O)c1cccc2cccnc12` [Compound 29], the “Tm change compared to DMSO control, DENV2 FL NS5 WT” value at DENV2 FL NS5 WT turned out to be 4.5 °C. In addition, the “Protein melting temperature, Tm, DENV2 FL NS5 WT” value at DENV2 FL NS5 WT came to 40 °C. In addition, on DENV2 FL NS5 L511V/E802D, the “Tm change compared to DMSO control, DENV2 FL NS5 L511V/E802D” value was found to be 0.5 °C. For the same compound, on DENV2 FL NS5 L511V/E802D, the “Protein melting temperature, Tm, DENV2 FL NS5 L511V/E802D” value is 35.5 °C. Moreover, the EC50 in [1] (48 hr) was 1.9 ± 0.2 µM; in data set [1] (setting [11]), around 2 µM; in data set [4] it was 4.6 µM; in data set [2], 2.8 µM; in data set [5] it was 5.8 µM; in the data set with HCV replicon it was above 25 µM. Moreover, the EC50 in the data set on DENV2-NGC replicon L512V was 32.3 µM; in [7] it was 38.8 µM; in the data set on DENV2-NGC virus E802D, 5.8 µM; in data set [8], 3.55 µM; with DENV2 replicon cells, 1 to 5 µM; in [9], 14.1 µM. Moreover, the EC50 with DENV3 strain MY05-34640 was 3.8 µM; in data set [10], 6.7 µM. Further, the CC50 in “in vitro [3]” (setting [14]), in “in vitro [3]” (setting [12]), in the data set “in vitro [3]” (setting [13]) and in the data set “in vitro [6]” was above 50 µM each time.
